The text below walks through data of patent US20210246157A1, “CAMPTOTHECIN DERIVATIVES AND PREPARATION METHODS AND APPLICATIONS THEREOF” (priority 2018, published 2021).

One series relates to ECA-109. The series can be described thus: Cytotoxicity test (MTT, 72 h). Particulars: Homo sapiens, ECa-109, 72 h, read-out: 50% Inhibiting Concentration value (IC50).
The next series concerns H1975. Briefly: Cytotoxicity test (MTT, 72 h). Particulars: Homo sapiens, NCI-H1975, 72 h, read-out: 50% Inhibiting Concentration value (IC50).
For series [1], the system named is colon cancer cells SW-480. The series can be described thus: In vivo antitumor activity, tumor volume (Example 19). The arrangement: species or system mice. To be noted: for Mouse Tumor Volume: average, n = 6; for inhibition rates on colon cancer cell SW-480 compared with CPT-11 (in words): dosage two-thirds of the molar fraction of CPT-11.
Series [2] can be described thus: Solubility test, equilibrium method, UV-visible spectrophotometry. It counts as physicochemical. To be noted: thermodynamic from solid. The gist of the method: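 Equilibrium solubility measured by UV-visible spectrophotometry. Reference solution of known concentration (C0) prepared in methanol; test concentration calculated as Cx=(Ax/A0)C0 from absorbance ratio of test to reference solution.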

Molecules are shown by their SMILES. In brackets after ≈: the same amount, converted by molar mass. Where two headings read alike, the source gives them in different places.

Method for ECA-109: (§1) In order to investigate the antitumor activities of the compounds, a variety of tumor cell lines for test are selected. Cells at logarithmic growth period are inoculated in a 96-well plate overnight, then drugs with a certain gradient concentrations are added, and incubation is carried out in a cell culture chamber (5% CO2, 37° C.) for 72 h.
Method for H1975: as §1

By solubility is commonly meant the concentration that dissolves in the medium under given conditions. `CCc1c2c(nc3ccc(OC(=O)OCCOCCOCCOCc4cn(CCO[C@H]5O[C@@H](CO)[C@H](O)[C@@H](O)[C@@H]5O)nn4)cc13)-c1cc3c(c(=O)n1C2)COC(=O)[C@]3(O)CC` [Compound 58]: the IC50 in the series with ECA-109 was 4.38 µM; with H1975 it was 9.35 µM. In addition, the “Mouse Tumor Volume” value stood at 235.22 mm^3 in series [1] (day 0, 13.73 mg/kg i.v. once every three days); 202.08 mm^3 in series [1] (day 3, 13.73 mg/kg i.v. once every three days); 98.87 mm^3 in series [1] (day 6, 13.73 mg/kg i.v. once every three days); 118.41 mm^3 in series [1] (day 9, 13.73 mg/kg i.v. once every three days); 80.63 mm^3 in series [1] (day 12, 13.73 mg/kg i.v. once every three days); 38.37 mm^3 in series [1] (day 15, 13.73 mg/kg i.v. once every three days). Moreover, the “Mouse Tumor Volume” value in series [1] (day 18, 13.73 mg/kg i.v. once every three days) amounted to 40.03 mm^3; in series [1] (day 21, 13.73 mg/kg i.v. once every three days), 7.16 mm^3. Moreover, in series [1], the “inhibition rates on colon cancer cell SW-480 compared with CPT-11 (in words)” value was “significantly higher inhibition rates”. Besides, the solubility came to 5330 µg/mL (≈ 6230 µM) in series [2] (aqueous with cosolvent or surfactant or cyclodextrin); 1580 µg/mL (≈ 1840 µM) in series [2] (pH 7.4, aqueous buffer); 3590 µg/mL (≈ 4200 µM) in series [2] (saline or isotonic); 2550 µg/mL (≈ 2980 µM) in series [2] (water).

For the compound `CCc1c2c(nc3ccc(OC(=O)NCCOCc4cn(CCO[C@H]5O[C@@H](CO)[C@H](O)[C@@H](O)[C@@H]5O)nn4)cc13)-c1cc3c(c(=O)n1C2)COC(=O)[C@]3(O)CC` [Compound 67], the IC50 amounted to 4.32 µM with ECA-109 and 6.73 µM in the series with H1975. The “Mouse Tumor Volume” value in series [1] (day 0, 12.30 mg/kg i.v. once every three days) came out at 227.31 mm^3; in series [1] (day 3, 12.30 mg/kg i.v. once every three days), 126.54 mm^3; in series [1] (day 6, 12.30 mg/kg i.v. once every three days), 142.84 mm^3; in series [1] (day 9, 12.30 mg/kg i.v. once every three days), 104.75 mm^3; in series [1] (day 12, 12.30 mg/kg i.v. once every three days), 73.72 mm^3; in series [1] (day 15, 12.30 mg/kg i.v. once every three days), 43.74 mm^3. Further, the “Mouse Tumor Volume” value in series [1] (day 18, 12.30 mg/kg i.v. once every three days) is given as 12.46 mm^3; in series [1] (day 21, 12.30 mg/kg i.v. once every three days), 11.38 mm^3. Also, in series [1], the “inhibition rates on colon cancer cell SW-480 compared with CPT-11 (in words)” value is given as “significantly higher inhibition rates”. Moreover, the solubility in series [2] (aqueous buffer, PBS pH 7.4, read-out: Solubility in PBS (pH = 7.4)) worked out at 2110 µg/mL (≈ 2750 µM); in series [2] (aqueous with cosolvent or surfactant or cyclodextrin, 0.1% aqueous solution of Tween-80, read-out: Solubility in 0.1% Tween-80), 1480 µg/mL (≈ 1930 µM); in series [2] (saline or isotonic, normal saline, read-out: Solubility in Normal Saline (NS)), 3350 µg/mL (≈ 4370 µM); in series [2] (water, read-out: Solubility in Water), 1260 µg/mL (≈ 1650 µM).
